Measured values taken from EP3727588B1, “ACTIVATOR PEPTIDES OF THE ENZYME ADAM 10 AND RELATED USES IN THE TREATMENT OF ALZHEIMER'S DISEASE” (UNIVERSITA' DEGLI STUDI DI MILANO, priority 2017, dated 2019).
Peptide text beside a SMILES is read from it.

Experiments:
[1] = test system: T1, ADAM10/AP2 complex (Rattus norvegicus); test: co-immunoprecipitation of ADAM10 with AP2 (α-adaptin) in acute hippocampal slices; format: cell-based; conditions: 10 µM, 30 min
T1 construct: endogenous in cells; host or cells: primary hippocampal neurons of rat embryos, DIV14
T1 sequence (P18484 whole entry): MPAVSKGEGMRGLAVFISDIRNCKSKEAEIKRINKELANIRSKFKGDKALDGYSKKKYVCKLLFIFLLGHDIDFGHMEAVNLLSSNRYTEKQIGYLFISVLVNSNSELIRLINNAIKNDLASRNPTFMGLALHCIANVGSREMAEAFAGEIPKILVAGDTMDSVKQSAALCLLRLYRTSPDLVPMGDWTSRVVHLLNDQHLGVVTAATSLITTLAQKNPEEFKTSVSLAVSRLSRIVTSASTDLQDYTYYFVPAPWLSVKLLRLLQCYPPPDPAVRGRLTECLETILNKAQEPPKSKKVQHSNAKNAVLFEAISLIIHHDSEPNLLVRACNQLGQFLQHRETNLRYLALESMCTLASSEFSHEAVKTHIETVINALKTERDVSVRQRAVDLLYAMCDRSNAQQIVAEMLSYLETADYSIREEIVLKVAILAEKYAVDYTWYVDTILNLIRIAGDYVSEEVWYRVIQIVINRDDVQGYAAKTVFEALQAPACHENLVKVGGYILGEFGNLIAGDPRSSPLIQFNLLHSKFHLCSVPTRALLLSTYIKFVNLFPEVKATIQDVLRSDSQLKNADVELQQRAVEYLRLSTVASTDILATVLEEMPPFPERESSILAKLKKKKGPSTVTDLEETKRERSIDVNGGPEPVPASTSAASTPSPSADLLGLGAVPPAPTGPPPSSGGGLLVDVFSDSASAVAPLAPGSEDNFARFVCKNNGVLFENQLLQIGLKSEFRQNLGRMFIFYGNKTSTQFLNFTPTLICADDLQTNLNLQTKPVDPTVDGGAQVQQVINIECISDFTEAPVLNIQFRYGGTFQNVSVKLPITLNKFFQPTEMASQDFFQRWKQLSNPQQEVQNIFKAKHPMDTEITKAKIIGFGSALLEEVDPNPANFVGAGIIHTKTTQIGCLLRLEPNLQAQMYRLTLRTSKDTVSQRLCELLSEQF
T1 sequence (P62744 whole entry, further chain): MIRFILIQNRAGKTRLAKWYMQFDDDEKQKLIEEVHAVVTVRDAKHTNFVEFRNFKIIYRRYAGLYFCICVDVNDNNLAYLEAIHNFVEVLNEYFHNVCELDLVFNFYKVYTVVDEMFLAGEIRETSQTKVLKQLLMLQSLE
T1 sequence (P84092 whole entry, further chain): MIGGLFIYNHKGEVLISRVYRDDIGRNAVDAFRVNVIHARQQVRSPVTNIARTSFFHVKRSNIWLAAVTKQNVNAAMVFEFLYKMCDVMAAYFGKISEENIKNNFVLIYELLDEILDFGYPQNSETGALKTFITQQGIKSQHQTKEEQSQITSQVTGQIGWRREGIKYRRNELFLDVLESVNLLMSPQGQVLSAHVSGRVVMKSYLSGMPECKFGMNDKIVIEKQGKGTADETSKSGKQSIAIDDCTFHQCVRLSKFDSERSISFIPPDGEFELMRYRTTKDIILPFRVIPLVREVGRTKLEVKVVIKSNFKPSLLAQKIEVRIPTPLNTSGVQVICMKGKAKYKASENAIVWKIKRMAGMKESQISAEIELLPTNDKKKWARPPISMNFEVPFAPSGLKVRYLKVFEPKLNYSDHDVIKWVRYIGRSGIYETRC
T1 sequence (P62944 whole entry, further chain): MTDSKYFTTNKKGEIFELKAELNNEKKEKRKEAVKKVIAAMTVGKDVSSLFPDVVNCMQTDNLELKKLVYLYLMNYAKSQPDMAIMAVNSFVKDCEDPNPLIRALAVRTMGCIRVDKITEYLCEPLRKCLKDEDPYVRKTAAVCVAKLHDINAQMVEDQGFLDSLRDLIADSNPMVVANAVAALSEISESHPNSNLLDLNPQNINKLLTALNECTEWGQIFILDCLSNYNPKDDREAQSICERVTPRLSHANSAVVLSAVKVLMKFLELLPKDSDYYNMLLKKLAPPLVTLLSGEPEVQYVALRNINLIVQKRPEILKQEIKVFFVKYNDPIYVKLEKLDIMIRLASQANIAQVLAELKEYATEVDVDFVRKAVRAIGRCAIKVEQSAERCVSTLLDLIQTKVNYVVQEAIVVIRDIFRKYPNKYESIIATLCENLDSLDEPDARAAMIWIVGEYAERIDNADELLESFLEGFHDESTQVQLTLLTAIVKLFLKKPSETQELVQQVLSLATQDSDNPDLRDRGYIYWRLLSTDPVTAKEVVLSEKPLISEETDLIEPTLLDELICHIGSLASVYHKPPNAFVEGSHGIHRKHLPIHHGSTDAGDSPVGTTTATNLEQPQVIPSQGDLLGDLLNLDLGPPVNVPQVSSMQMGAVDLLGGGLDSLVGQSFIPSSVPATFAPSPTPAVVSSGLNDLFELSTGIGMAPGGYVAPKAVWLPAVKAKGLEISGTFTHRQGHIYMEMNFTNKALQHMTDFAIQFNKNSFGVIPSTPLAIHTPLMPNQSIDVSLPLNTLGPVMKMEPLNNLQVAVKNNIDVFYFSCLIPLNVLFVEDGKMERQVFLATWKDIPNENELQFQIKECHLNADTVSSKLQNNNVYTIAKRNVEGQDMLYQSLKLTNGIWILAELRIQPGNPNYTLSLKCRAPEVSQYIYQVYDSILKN
Protocol: (§1) The acute hippocampal slices were obtained from rat brain. After carefully removing the meninges, the hippocampus was isolated and dissected using the McIlwain tissue chopper. The hippocampal slices were then transferred into supports containing Krebs buffer, in the presence of a constant flow of 95% O2 and 5% CO2 5% (v/v). The acute slices were kept for 45 min at ambient temperature before proceeding with treatment with the peptide.
(§2) For the treatments of the acute hippocampal slices, all the peptides were diluted in Krebs buffer at a concentration of 10µM. The treatments were performed for 30 minutes and subsequently the sample was immediately frozen.
(§3) For the co-immunoprecipitation experiments, aliquots of 40-100 µg of lysate were incubated at 4°C in RIA 1X buffer (NaCl 200 mM, EDTA 10 mM, Na2HPO4 10 mM, Nonidet P-40, 0.5% and 0.1% SDS) in a final volume of 150 µl with 1-2 µg of antibody. The following day the protein complex A/G (Santa Cruz Biotechnology) was added, conjugated with agarose marbles, and the incubation was continued for 2 hours. After three washes with RIA buffer the samples were loaded onto SDS-PAGE and analysed through Western Blot.
(§4) The quantization of the Western Blot analyses was performed through an image analysis program (ImageLab -BioRad). The levels of proteins were expressed as optical density (OD) related to the different measurements and were normalized on respective tubulin levels.
(§5) The samples were then processed, and the total homogenate was used to evaluate the interaction levels between ADAM10 and the complex AP2. The co-immunoprecipitation experiment (co-IP), performed using an anti-ADAM10 antibody, made it possible to verify that two of the three peptides (PEP2 (SEQ ID NO:2) and PEP3 (SEQ ID NO:1)) were able to interfere with the interaction between ADAM10 and α-adaptin, one of the subunits that constitutes the complex AP2 (Figure 1A).

[2] = target: T2, ADAM10/AP2 complex (Rattus norvegicus, UniProt P62944); test: as above; format: cell-based; conditions: 10 µM, 30 minutes
T2 construct: endogenous in cells; host or cells: primary hippocampal neurons of rat embryos, DIV14
T2 sequence (P18484 whole entry): as the sequence (P18484 whole entry) above
T2 sequence (P62744 whole entry, further chain): as the sequence (P62744 whole entry, further chain) above
T2 sequence (P84092 whole entry, further chain): as the sequence (P84092 whole entry, further chain) above
T2 sequence (P62944 whole entry): as the sequence (P62944 whole entry, further chain) above
Protocol: as §1, §2, §3, §4, §5

[3] = target: T2, ADAM10/AP2 complex; test: co-immunoprecipitation of ADAM10 with AP2 subunits in primary cultures of hippocampal neurons; format: cell-based
Protocol: The primary cultures were prepared from hippocampi of rat embryos as described in [20]. The cultures were grown in media containing Neurobasal (Life Technologies), B27 2% (Life Technologies), GlutaMAX 1% (Life Technologies) and Penicillin/Streptomycin 1% (Pen/Strep; Life Technologies), a 37 °C with 95% humidity and 5% CO2 for 14 days. The cells were treated by diluting the peptides in the complete growth medium, at a final concentration of 1 µM. The treatment was performed for 30 minutes at 37°C, then the neurons were lysed.
as §3, §4
After 30 minutes, the cells were processed and the cell lysate was used for performing the co-IP analyses.

[4] = blood-brain barrier crossing, anti-TAT immunohistochemistry on coronal brain sections; format: in vivo; conditions: C57BL/6 mice, intraperitoneal injection 3 nmoles/g, 24 hours
Protocol: For the immunohistochemistry analyses, mice treated with the peptide were anaesthetized deeply and subjected to transcardial perfusion with 4% paraformaldehyde (prepared in PBS, pH 7.2-7.4), through the use of a peristaltic pump. The fixing liquid was inserted into the blood circulation through the left ventricle and after 10 minutes the brain was isolated. The sample was then post-fixed for 1 hour and 30 minutes at 4°C, then washed with PBS 1X and placed o/n in a 30% sucrose solution. The following day the sample was washed again with PBS 1X cut with the vibratome obtaining coronal sections of 50µm. Then the sections were stained through free-floating immunofluorescence technique. The fluorescence images were acquired using the Zeiss Confocal LSM510 Meta system with 63x objective at a resolution of 1024x1024 pixels. […]
The coronal sections were incubated with a specific antibody for the identification of the MAP2 neurons, and an antibody able to recognize the TAT sequence of HIV-1 present in the CPPs. As shown by the arrows in Figure 6, the presence of a specific signal of the anti-TAT antibody can be identified, which can only be detected in the coronal sections of brain of animals treated with CPPs. […] In the brain of animals only treated with saline solution (Figure 6, panel A), such signal cannot be detected.

[5] = primary hippocampal neurons DIV 14, 1 µM, 30 minutes

SMILES: CC(C)C[C@H](NC(=O)[C@H](CCCNC(=N)N)NC(=O)[C@@H]1CCCN1C(=O)[C@H](CCCNC(=N)N)NC(=O)[C@H](CCC(N)=O)NC(=O)[C@H](CCCNC(=N)N)NC(=O)[C@@H]1CCCN1C(=O)[C@@H]1CCCN1C(=O)[C@H](CC(C)C)NC(=O)CNC(=O)[C@H](CO)NC(=O)CNC(=O)CNC(=O)[C@H](CCCNC(=N)N)NC(=O)[C@H](CCCNC(=N)N)NC(=O)[C@H](CCCNC(=N)N)NC(=O)[C@H](CCC(N)=O)NC(=O)[C@H](CCCNC(=N)N)NC(=O)[C@H](CCCNC(=N)N)NC(=O)[C@H](CCCCN)NC(=O)[C@H](CCCCN)NC(=O)[C@H](CCCNC(=N)N)NC(=O)CNC(=O)[C@@H](N)Cc1ccc(O)cc1)C(=O)O [PEP2] (H-YGRKKRRQRRRGGSGLPPRQRPRL-OH)
- PEP/inPEP ratio of optical density (OD), ADAM10/AP2 complex (α-adaptin) [1]: 41.60 ± 23.86%
- reduction of the interaction between ADAM10 and α-adaptin [2]: 58.4%
- PEP/inPEP OD, ADAM10/AP2 complex, µ2 ([3]; primary cultures of neurons, 1µM, 30 min): 52.01 ± 3.77%
- reduction in the levels of interaction between ADAM10 and the complex AP2, subunit µ2 [3, 5]: 48%
- reduction in the levels of interaction between ADAM10 and the complex AP2, subunit α-adaptin [3, 5]: 66%
- capacity to cross the blood-brain barrier (BBB) [4]: can cross the BBB and penetrate into the neuron cells
